Assays:
[1] = tested on: PC9/GR, PC9/ER, H1975, H596 and H1650 cell lines having resistance to erlotinib; test: relative cell viability (CellTiter-Glo), erlotinib-resistant lines; format: cell-based; conditions: cell lines having resistance to erlotinib (EGFR T790M etc.), 96 hours
Method: After 96 hours of additional culture, the relative viability of the cells was measured. […] On the other hand, PC9/GR and PC9/ER contain delE764-A750 mutation, like PC9, and have T790M mutation. […] H1975 has L858R and T790M mutations, H596 has overexpressed EGFR, and H1650 has delE764-A750 mutation. […] The cell viability was measured using the CellTiter-Glo used in Example 1.

[2] = tested on: PC9 cell line; test: relative cell viability (CellTiter-Glo), erlotinib-sensitive line; format: cell-based; conditions: PC9, 96 hours
Method: After 96 hours of additional culture, the relative viability of the cells was measured. These cell lines were used because they have genetic characteristics and drug resistance as follows. […] On the other hand, PC9/GR and PC9/ER contain delE764-A750 mutation, like PC9, and have T790M mutation. […] H1975 has L858R and T790M mutations, H596 has overexpressed EGFR, and H1650 has delE764-A750 mutation. […] The cell viability was measured using the CellTiter-Glo used in Example 1.

[3] = tested on: lung cancer cell lines H2009, H596, H1650, PC9, PC9/GR, H1975, HCC827, and A549; test: miRNA library screening, inhibition of proliferation (CellTiter-Glo); format: cell-based; conditions: 40 nM miRNA with RNAiMax, 96 hours, eight lung cancer cell lines
Method: Using the same miRNA library used in Korean Patent Application No. 10-2016-0022462, an experiment was performed to screen miRNAs that induce apoptosis of lung cancer cell lines. The lung cancer cell lines used in the experiment are as follows: H2009, H596, H1650, PC9, PC9/GR, H1975, HCC827, and A549 (purchased from the ATCC or the Korean Cell Line Bank). Each of the cell lines was seeded into a 96-well plate and treated with 40 nM of each miRNA together with the transfection reagent RNAiMax (Invitrogen), and the miRNA was delivered into the cells. After 96 hours of additional culture, the relative growth of the cells was measured using CellTiter-Glo reagent (Promega) (FIGS. 1 to 4).

[4] = tested on: EGFR mRNA; test: RT-qPCR relative expression level of EGFR mRNA; format: cell-based; conditions: PC9, PC9/ER, H1975 and H596, versus negative control
[5] = tested on: PC9 and PC9/ER cell lines; test: apoptosis analysis by annexin V / propidium iodide flow cytometry (FACS); format: cell-based; conditions: RNAiMax transfection, 48 hours, versus miRNA control
Method: After 48 hours of additional culture, the cells were treated with FITC fluorescent dye-labeled annexin V and propidium iodide (PI) and analyzed by flow cytometry (FACS).

[6] = tested on: proteins involved in the EGFR signaling pathway; test: Western blot analysis of proteins involved in the EGFR signaling pathway; format: cell-based
Text: It is known that the EGFR signaling pathway in the lung cancer cell lines used in the Examples is activated due to the presence of mutation in the EGFR protein and activation of the EGFR signaling pathway plays an important role in the survival of the cell lines.

[7] = tested on: 3′ UTR of EGFR mRNA; test: luciferase assay with EGFR 3′ UTR firefly luciferase vector in HEK cells; format: cell-based, human
Text: Since miRNA inhibits protein production from target mRNA by binding to the 3′ UTR (untranslated region) of the target mRNA, luciferase assay is generally used as a method of directly measuring the relationship between miRNA and the target mRNA. Using the TargetScan software, a 3′ UTR sequence comprising a miRNA binding sequence was predicted. The predicted 3′ UTR sequence was cloned into the 3′ UTR of firefly luciferase by a gene cloning technique. The constructed vector and the miRNA of interest were co-transfected into human embryonic kidney (HEK) cells, and the luciferase expression level of the vector was measured. […] At this time, in order to correct the transfection efficiency, Renilla luciferase was also transfected to correct the measurement value. After co-transfection of the miRNA, firefly luciferase and Renilla luciferase, the cells were cultured for 48 hours, and then the luciferase activity was measured using a luminometer.

[8] = Western blot, versus control group

| Compound | concentration at which apoptosis of the cells could be induced [1] [µM] | concentration at which cells could be killed [2] [µM] | inhibition of cell proliferation (relative growth of the cells) [3] | expression of EGFR mRNA [4] | number of dead cells (annexin V/PI) [5] | inhibition of pEGFR and ERK phosphorylation, apoptosis (PARP) by Western blot ([6]; PC9 cell line) | amount of ERK, an activated form of the ERK protein ([6]; Western blot) | expression level of phosphorylated EGFR [6, 8] | expression level of the EGFR protein [6, 8] | inhibition of pEGFR and ERK phosphorylation, apoptosis (PARP) by Western blot ([6]; other cell lines having erlotinib resistance due to EGFR T790M mutation) | luciferase activity, EGFR 3′UTR vector ([7]; HEK cells, co-transfection, 48 hours, Renilla-corrected) | luciferase activity, EGFR 3′UTR with mutations in target regions ([7]; mutations EGFR 3′UTR 250-256, 2288-2295, and 3476-3482 nt) |
| --- | --- | --- | --- | --- | --- | --- | --- | --- | --- | --- | --- | --- |
| C#Cc1cccc(Nc2ncnc3cc(OCCOC)c(OCCOC)cc23)c1 [erlotinib] | 10 | 0.1 | – | – | – | – | – | – | – | – | – | – |
| miR-544a: double-stranded miRNA consisting of SEQ ID NO: 1 (5'-AUUCUGCAUUUUUAGCAAGUUC-3') and SEQ ID NO: 2 (5'-ACUUGCUAAAAAUGCAGAAUUU-3') (listed as RNA, chemistry not given here) | – | – | excellent effect against the cell lines used | decreased in all the cell lines used in the experiment | significantly higher than that in the cell line treated with the miRNA control | inhibit activated EGFR (pEGFR) and inhibit phosphorylation of the downstream signaling factor ERK | decreased | also decreased compared to that in the control group | significantly decreased compared to that in the control group | only miR-544a exhibits this effect | each target mRNA was controlled directly by the miRNA | the expression inhibition phenomenon by the miRNA disappeared |
